Earlier results, collected in US6319912A, “Cyclic regimens using 2,1-benzisothiazoline 2,2-dioxides” (American Home Products Corporation, priority 2000, dated 2001).

Tested on: hormone dependent prostate cancer
Details: literature, Michna et al 1995

SMILES: CN(C)c1ccc([C@H]2C[C@]3(C)[C@@H](CC[C@]3(O)CCCO)[C@@H]3CCC4=CC(=O)CCC4=C32)cc1 [onapristone]
- effectiveness in a model of hormone dependent prostate cancer: effective

SMILES: CC#C[C@]1(O)CC[C@H]2[C@@H]3CCC4=CC(=O)CCC4=C3[C@@H](c3ccc(N(C)C)cc3)C[C@@]21C [mifepristone]
- effectiveness in a model of hormone dependent prostate cancer: effective
